Results: ChEMBL document CHEMBL1124634, “Synthesis and antirhinovirus activity of 6-(dimethylamino)-2-(trifluoromethyl)-9-(substituted benzyl)-9H-purines” (J Med Chem, 1989)

Columns and labels:
Human rhinovirus sp. [1] = assay: Antiviral activity against rhinoviral-1B serotype in a plaque inhibition assay using monolayers of M-HeLa cells; assay type: functional, organism-based
Human rhinovirus sp. [2] = assay: Percent inhibitory activity at 8 uM against rhinoviral 13 serotype in a plaque inhibition assay using monolayers of M-HeLa cells; assay type: functional
Human rhinovirus sp. [3] = assay: Antiviral activity against rhinoviral 9 serotype in a plaque inhibition assay using monolayers of M-HeLa cells; assay type: functional, organism-based
Human rhinovirus sp. [4] = assay: Antiviral activity against rhinoviral 3 serotype in a plaque inhibition assay using monolayers of M-HeLa cells; assay type: functional, organism-based
Human rhinovirus sp. [5] = assay: Antiviral activity against rhinoviral-1A serotype in a plaque inhibition assay using monolayers of M-HeLa cells; assay type: functional, organism-based
Human rhinovirus sp. [6] = assay: Antiviral activity against rhinoviral 15 serotype in a plaque inhibition assay using monolayers of M-HeLa cells; assay type: functional, organism-based
Human rhinovirus sp. [7] = assay: Antiviral activity against rhinoviral 12 serotype in a plaque inhibition assay using monolayers of M-HeLa cells; assay type: functional, organism-based
Human rhinovirus sp. [8] = assay: Antiviral activity against rhinoviral 18 serotype in a plaque inhibition assay using monolayers of M-HeLa cells; assay type: functional, organism-based
Human rhinovirus sp. [9] = assay: Antiviral activity against rhinoviral 31 serotype in a plaque inhibition assay using monolayers of M-HeLa cells; assay type: functional, organism-based
Human rhinovirus sp. [10] = assay: Antiviral activity against rhinoviral 16 serotype in a plaque inhibition assay using monolayers of M-HeLa cells; assay type: functional, organism-based
Human rhinovirus sp. [11] = assay: Antiviral activity against rhinoviral 4 serotype in a plaque inhibition assay using monolayers of M-HeLa cells; assay type: functional, organism-based
Human rhinovirus sp. [12] = assay: Percent inhibitory activity at 8 uM against rhinoviral 19s erotype in a plaque inhibition assay using monolayers of M-HeLa cells; assay type: functional
Human rhinovirus sp. [13] = assay: Percent inhibitory activity at 8 uM against rhinoviral 5 serotype in a plaque inhibition assay using monolayers of M-HeLa cells; assay type: functional
Human rhinovirus sp. [14] = assay: Antiviral activity against rhinoviral 21 serotype in a plaque inhibition assay using monolayers of M-HeLa cells; assay type: functional, organism-based
Human rhinovirus sp. [15] = assay: Antiviral activity against rhinoviral 8 serotype in a plaque inhibition assay using monolayers of M-HeLa cells; assay type: functional, organism-based
Human rhinovirus sp. [16] = assay: Antiviral activity against rhinoviral 29 serotype in a plaque inhibition assay using monolayers of M-HeLa cells; assay type: functional, organism-based
Human rhinovirus sp. [17] = assay: Antiviral activity against rhinoviral 14 serotype in a plaque inhibition assay using monolayers of M-HeLa cells; assay type: functional, organism-based
Human rhinovirus sp. [18] = assay: Antiviral activity against rhinoviral 2 serotype in a plaque inhibition assay using monolayers of M-HeLa cells; assay type: functional, organism-based
Human rhinovirus sp. [19] = assay: Antiviral activity against rhinoviral 30 serotype in a plaque inhibition assay using monolayers of M-HeLa cells; assay type: functional, organism-based
Human rhinovirus sp. [20] = assay: Percent inhibitory activity at 8 uM against rhinoviral 15 serotype in a plaque inhibition assay using monolayers of M-HeLa cells; assay type: functional
Human rhinovirus sp. [21] = assay: Antiviral activity against rhinoviral 5 serotype in a plaque inhibition assay using monolayers of M-HeLa cells; assay type: functional, organism-based
Human rhinovirus sp. [22] = assay: Percent inhibitory activity at 8 uM against rhinoviral 14 serotype in a plaque inhibition assay using monolayers of M-HeLa cells; assay type: functional
Human rhinovirus sp. [23] = assay: Percent inhibitory activity at 8 uM against rhinoviral 21 serotype in a plaque inhibition assay using monolayers of M-HeLa cells; assay type: functional
Human rhinovirus sp. [24] = assay: Antiviral activity against rhinoviral-18 serotype in a plaque inhibition assay using monolayers of M-HeLa cells; assay type: functional, organism-based
Human rhinovirus sp. [25] = assay: Percent inhibitory activity at 8 uM against rhinoviral 30 serotype in a plaque inhibition assay using monolayers of M-HeLa cells; assay type: functional
Human rhinovirus sp. [26] = assay: Percent inhibitory activity at 8 uM against rhinoviral 3 serotype in a plaque inhibition assay using monolayers of M-HeLa cells; assay type: functional
Human rhinovirus sp. [27] = assay: Percent inhibitory activity at 8 uM against rhinoviral 4 serotype in a plaque inhibition assay using monolayers of M-HeLa cells; assay type: functional
Human rhinovirus sp. [28] = assay: Antiviral activity against rhinoviral-19 serotype in a plaque inhibition assay using monolayers of M-HeLa cells; assay type: functional, organism-based
Human rhinovirus sp. [29] = assay: Percent inhibitory activity at 8 uM against rhinoviral 29 serotype in a plaque inhibition assay using monolayers of M-HeLa cells; assay type: functional
Human rhinovirus sp. [30] = assay: Percent inhibitory activity at 8 uM against rhinoviral 31 serotype in a plaque inhibition assay using monolayers of M-HeLa cells; assay type: functional

Compound: CN(C)c1nc(C(F)(F)F)nc2c1ncn2Cc1ccccc1[N+](=O)[O-]
- IC50 (Human rhinovirus sp. [1]): 280 µM

Compound: COc1cc(Cl)ccc1Cn1cnc2c(N(C)C)nc(C(F)(F)F)nc21
- IC50 (Human rhinovirus sp. [1]): 135 µM

Compound: CN(C)c1nc(C(F)(F)F)nc2c1ncn2Cc1ccc(Br)cc1
- Inhibition (Human rhinovirus sp. [2]): 40%
- IC50 (Human rhinovirus sp. [1]): 0.03 µM
- IC50 (Human rhinovirus sp. [3]): 0.7 µM
- IC50 (Human rhinovirus sp. [4]): 8 µM
- IC50 (Human rhinovirus sp. [5]): 0.76 µM
- IC50 (Human rhinovirus sp. [6]): 5.7 µM
- IC50 (Human rhinovirus sp. [7]): 9.5 µM
- IC50 (Human rhinovirus sp. [8]): 7.5 µM
- IC50 (Human rhinovirus sp. [9]): 5.5 µM
- IC50 (Human rhinovirus sp. [10]): 1.2 µM
- IC50 (Human rhinovirus sp. [11]): 7.6 µM
- Inhibition (Human rhinovirus sp. [12]): 27%
- Inhibition (Human rhinovirus sp. [13]): 37%
- IC50 (Human rhinovirus sp. [14]): 5 µM
- IC50 (Human rhinovirus sp. [15]): 8.3 µM
- IC50 (Human rhinovirus sp. [16]): 3.2 µM
- IC50 (Human rhinovirus sp. [17]): 8.1 µM
- IC50 (Human rhinovirus sp. [18]): 7.3 µM
- IC50 (Human rhinovirus sp. [19]): 4.6 µM

Compound: CN(C)c1nc(C(F)(F)F)nc2c1ncn2Cc1ccc(N)cc1
- IC50 (Human rhinovirus sp. [1]): 0.13 µM

Compound: CN(C)c1nc(C(F)(F)F)nc2c1ncn2Cc1cccc([N+](=O)[O-])c1
- IC50 (Human rhinovirus sp. [1]): 0.13 µM

Compound: CC(C)Oc1ccc(Cn2cnc3c(N(C)C)nc(C(F)(F)F)nc32)cc1
- Inhibition (Human rhinovirus sp. [2]): 39%
- IC50 (Human rhinovirus sp. [1]): 1 µM
- IC50 (Human rhinovirus sp. [3]): 1.5 µM
- IC50 (Human rhinovirus sp. [4]): 8 µM
- IC50 (Human rhinovirus sp. [5]): 2.8 µM
- IC50 (Human rhinovirus sp. [7]): 10 µM
- IC50 (Human rhinovirus sp. [8]): 6.8 µM
- IC50 (Human rhinovirus sp. [9]): 4.2 µM
- Inhibition (Human rhinovirus sp. [20]): 40%
- IC50 (Human rhinovirus sp. [10]): 2.1 µM
- IC50 (Human rhinovirus sp. [11]): 3.7 µM
- IC50 (Human rhinovirus sp. [21]): 11 µM
- Inhibition (Human rhinovirus sp. [12]): 33%
- Inhibition (Human rhinovirus sp. [22]): 22%
- IC50 (Human rhinovirus sp. [15]): 10 µM
- IC50 (Human rhinovirus sp. [16]): 2.5 µM
- Inhibition (Human rhinovirus sp. [23]): 40%
- IC50 (Human rhinovirus sp. [18]): 5.2 µM
- IC50 (Human rhinovirus sp. [19]): 6.6 µM

Compound: Cc1cc(Cl)ccc1Cn1cnc2c(N(C)C)nc(C(F)(F)F)nc21
- Inhibition (Human rhinovirus sp. [2]): 23%
- IC50 (Human rhinovirus sp. [1]): 0.12 µM
- IC50 (Human rhinovirus sp. [3]): 2 µM
- IC50 (Human rhinovirus sp. [5]): 0.82 µM
- IC50 (Human rhinovirus sp. [7]): 7.8 µM
- IC50 (Human rhinovirus sp. [24]): 10 µM
- IC50 (Human rhinovirus sp. [9]): 12 µM
- Inhibition (Human rhinovirus sp. [20]): 11%
- IC50 (Human rhinovirus sp. [10]): 1.9 µM
- IC50 (Human rhinovirus sp. [21]): > 8 µM
- Inhibition (Human rhinovirus sp. [25]): 28%
- Inhibition (Human rhinovirus sp. [26]): 29%
- Inhibition (Human rhinovirus sp. [27]): 25%
- IC50 (Human rhinovirus sp. [15]): 9.5 µM
- Inhibition (Human rhinovirus sp. [23]): 22%
- IC50 (Human rhinovirus sp. [17]): 9 µM
- IC50 (Human rhinovirus sp. [28]): 10 µM
- Inhibition (Human rhinovirus sp. [29]): 32%
- IC50 (Human rhinovirus sp. [18]): 9 µM

Compound: CN(C)c1nc(C(F)(F)F)nc2c1ncn2Cc1cccc(C(=O)O)c1
- IC50 (Human rhinovirus sp. [1]): 4.6 µM

Compound: CCCCOc1ccc(Cn2cnc3c(N(C)C)nc(C(F)(F)F)nc32)cc1
- IC50 (Human rhinovirus sp. [1]): 2.1 µM

Compound: CN(C)c1nc(C(F)(F)F)nc2c1ncn2Cc1ccc(Cl)cc1NC=O
- IC50 (Human rhinovirus sp. [1]): 6.9 µM

Compound: COc1cc(C)ccc1Cn1cnc2c(N(C)C)nc(C(F)(F)F)nc21
- IC50 (Human rhinovirus sp. [1]): 70 µM

Compound: CN(C)c1nc(C(F)(F)F)nc2c1ncn2Cc1cccc(N)c1
- IC50 (Human rhinovirus sp. [1]): 0.3 µM

Compound: CC(=O)Nc1ccc(Cn2cnc3c(N(C)C)nc(C(F)(F)F)nc32)cc1
- IC50 (Human rhinovirus sp. [1]): 0.37 µM

Compound: CN(C)c1nc(C(F)(F)F)nc2c1ncn2Cc1ccc(C(=O)O)cc1
- IC50 (Human rhinovirus sp. [1]): 4.6 µM

Compound: CCOC(=O)c1ccc(Cn2cnc3c(N(C)C)nc(C(F)(F)F)nc32)cc1
- IC50 (Human rhinovirus sp. [1]): 5 µM

Compound: CN(C)c1cccc(Cn2cnc3c(N(C)C)nc(C(F)(F)F)nc32)c1
- IC50 (Human rhinovirus sp. [1]): 0.25 µM

Compound: CN(C)c1nc(C(F)(F)F)nc2c1ncn2Cc1ccc(Cl)c(N)c1
- Inhibition (Human rhinovirus sp. [2]): 18%
- IC50 (Human rhinovirus sp. [1]): 0.17 µM
- IC50 (Human rhinovirus sp. [3]): 1.5 µM
- IC50 (Human rhinovirus sp. [4]): 14 µM
- IC50 (Human rhinovirus sp. [5]): 2.4 µM
- Inhibition (Human rhinovirus sp. [30]): 29%
- IC50 (Human rhinovirus sp. [6]): 5.8 µM
- IC50 (Human rhinovirus sp. [7]): 5.2 µM
- IC50 (Human rhinovirus sp. [24]): 14 µM
- IC50 (Human rhinovirus sp. [10]): 1.6 µM
- IC50 (Human rhinovirus sp. [11]): 7.2 µM
- IC50 (Human rhinovirus sp. [21]): > 8 µM
- Inhibition (Human rhinovirus sp. [12]): 40%
- Inhibition (Human rhinovirus sp. [25]): 34%
- IC50 (Human rhinovirus sp. [15]): 6.2 µM
- Inhibition (Human rhinovirus sp. [23]): 10%
- IC50 (Human rhinovirus sp. [17]): 7.1 µM
- Inhibition (Human rhinovirus sp. [29]): 26%
- IC50 (Human rhinovirus sp. [18]): 6.5 µM

Compound: CN(C)c1nc(C(F)(F)F)nc2c1ncn2Cc1cccc(OCc2ccccc2)c1
- IC50 (Human rhinovirus sp. [1]): 1.1 µM

Compound: CN(C)c1nc(C(F)(F)F)nc2c1ncn2Cc1ccc(CO)cc1
- IC50 (Human rhinovirus sp. [1]): 0.2 µM

Compound: CN(C)c1nc(C(F)(F)F)nc2c1ncn2Cc1ccc(O)cc1
- IC50 (Human rhinovirus sp. [1]): 0.17 µM

Compound: COC(=O)c1cccc(Cn2cnc3c(N(C)C)nc(C(F)(F)F)nc32)c1
- IC50 (Human rhinovirus sp. [1]): 2.6 µM

Compound: CN(C)c1nc(C(F)(F)F)nc2c1ncn2Cc1ccc(Cl)cc1[N+](=O)[O-]
- IC50 (Human rhinovirus sp. [1]): 0.53 µM

Compound: COc1cccc(Cn2cnc3c(N(C)C)nc(C(F)(F)F)nc32)c1
- IC50 (Human rhinovirus sp. [1]): 0.1 µM
